Patent US20260115170A1, “Method of Ameliorating a Symptom or a Disease in a Human Caused by Fungus” (ISHIHARA SANGYO KAISHA, LTD., priority 2020, published 2026)
In brackets after ≈: the same amount, converted by molar mass.

How the values were obtained:
[1] = tested on: Malassezia pachydermatis (TIMM10024); experiment: Test Example 1-5 antimicrobial activity test, colony formation inhibition rate after 5 minutes contact; type: cell-based; details: contact 5 minutes at 30° C., culturing 5 days
Method: Test Microbial Strain: Malassezia pachydermatis (TIMM10024)
(§1) The Malassezia microbe cultured at 32° C. for 20 hours in a Sabouraud liquid medium containing Tween80 (polyoxyethylene sorbitan monooleate: manufactured by Kanto Chemical Co., Inc.) (0.05% (v/v)) was recovered by centrifugation (3000 rpm, 5 minutes), washed twice with physiological saline, and then suspended in 10 ml of physiological saline, the resulting suspension was allowed to stand for 15 minutes, and then the supernatant was recovered. […] 100 μL of the microbial liquid resulting from the resuspension was applied to a Sabouraud medium containing Tween80 (0.05% (v/v)) and subjected to culturing at 30° C. for 5 days, then the number of colonies formed there (number of colonies formed in the inventive plot) and the number of colonies in a solvent to which the test compound was not added (the number of colonies formed in the non-agent treated plot) were measured, and the colony formation inhibition rate (%) was determined in the same manner as in Test Example 1-4.

[2] = tested on: Cryptococcus neoformans (TIMM1316 Strain); experiment: Test Example 1-3 antimicrobial activity test, colony formation; type: cell-based; details: at 20 ppm, Sabouraud medium, 37° C. for 48 hours
Method: (§2) Test Microbial Strain: Cryptococcus neoformans (TIMM1316 Strain) Test method: The Cryptococcus microbe cultured in an YPD liquid medium at 37° C. for 20 hours was recovered by centrifugation (3000 rpm, 5 minutes), washed twice with physiological saline, and then suspended in physiological saline, and a microbial liquid was prepared in such a way as to provide 2×10^3 cells/mL. 100 μL of the microbial liquid was applied to a Sabouraud medium to which the test compound dissolved in DMSO was added to have a predetermined concentration. After culturing at 37° C. for 48 hours, the presence or absence of colony formation was investigated.

[3] = tested on: Malassezia Nana (CBS95574); experiment: Test Example 1-4 antimicrobial activity test, colony formation inhibition rate after 5 minutes contact; type: cell-based; details: contact 5 minutes at 30° C., culturing 5 days
Method: Test Microbial Strain: Malassezia Nana (CBS95574)
as §1, with “10 mL” for “10 ml”, “determined according to” for “determined in”, “the following expression.” for “the same manner as in Test Example 1-4.”

[4] = tested on: Candida albicans (TIMM1768 Strain); experiment: Test Example 1-1 antimicrobial activity test, colony formation; type: cell-based; details: at 50 ppm, Sabouraud medium, 37° C. for 48 hours
Method: as §2, with “Candida albicans (TIMM1768” for “Cryptococcus neoformans (TIMM1316”, “Candida” for “Cryptococcus”

[5] = tested on: A. Niger (TIMM4968 Strain); experiment: Test Example 1-6 antimicrobial activity test, minimum inhibitory concentration; type: cell-based; details: Aspergillus niger, Sabouraud medium, 28° C. for 48 hours
Method: (§3) Test Microbial Strains: Aspergillus fumigatus (TIMM0063 Strain), and A. Niger (TIMM4968 Strain) Test method: The Aspergillus microbe was cultured in a PDA medium at 27° C. for 3 days, then spores were collected in physiological saline containing Tween80 (polyoxyethylene sorbitan monooleate: manufactured by Kanto Chemical Co., Inc.) (0.05% (v/v)), and this was filtered through a cell strainer (+40 μm). The spores were recovered from the filtrate by centrifugation (3500 rpm, 5 minutes) and washed twice with physiological saline, and then a spore suspension was prepared (1×10^7 spores/mL). 10 μL of the spore suspension was inoculated into a Sabouraud medium to which compound No. 1 dissolved in DMSO was added to have a predetermined concentration. After culturing at 28° C. for 48 hours, the presence or absence of microbial growth was investigated, and the minimum inhibitory concentration was determined.

[6] = tested on: Aspergillus fumigatus (TIMM0063 Strain); experiment: as above; type: cell-based; details: Sabouraud medium, 28° C. for 48 hours
Method: as §3

[7] = tested on: Trichophyton rubrum (CBS118892 Strain); experiment: Test Example 1-7 antimicrobial activity test, minimum inhibitory concentration; type: cell-based; details: Sabouraud medium, 28° C. for 72 hours
Method: (§4) Test Microbial Strains: Trichophyton rubrum (CBS118892 Strain), T. interdegitale (TIMM20065 Strain), Microsporum canis (TIMM20080 Strain), and Arthroderma vanbreuseghemii (TIMM2789)
(§5) Each microbial strain was cultured in a Sabouraud medium containing 500 μg/mL of cycloheximide and 50 μg/mL of chloramphenicol at 28° C. for 8 days, then spores were collected in physiological saline containing Tween80 (polyoxyethylene sorbitan monooleate: manufactured by Kanto Chemical Co., Inc.) (0.05% (v/v)), and this was filtered through a cell strainer (φ40 μm). The spores were recovered from the filtrate by centrifugation (3500 rpm, 5 minutes) and washed twice with physiological saline, and then a spore suspension was prepared (1×10^7 spores/mL). 10 μL of the spore suspension was inoculated into a Sabouraud medium to which compound No. 1 dissolved in DMSO was added to have a predetermined concentration. After culturing at 28° C. for 72 hours, the presence or absence of microbial growth was investigated, and the minimum inhibitory concentration was determined. As a result, the minimum inhibitory concentration of compound No. 1 for each of the four microbial strains was 10 ppm.

[8] = tested on: Microsporum canis (TIMM20080 Strain); experiment: as above; type: cell-based; details: Sabouraud medium, 28° C. for 72 hours
Method: as §4, §5

[9] = tested on: Arthroderma vanbreuseghemii (TIMM2789); experiment: as above; type: cell-based; details: Trichophyton mentagrophytes, Sabouraud medium, 28° C. for 72 hours
Method: as §4, §5

[10] = tested on: T. interdegitale (TIMM20065 Strain); experiment: as above; type: cell-based, Trichophyton interdegitale; details: Trichophyton, Sabouraud medium, 28° C. for 72 hours
Method: as §4, §5

[11] = tested on: Candida glabrata (TIMM6054 Strain); experiment: Test Example 1-2 antimicrobial activity test, colony formation; type: cell-based; details: at 200 ppm, YPD medium, 37° C. for 48 hours
Method: as §2, with “Candida glabrata (TIMM6054” for “Cryptococcus neoformans (TIMM1316”, “Candida” for “Cryptococcus”, “an YPD” for “a Sabouraud”

MIC [5]: 100 µg/mL (≈ 459 µM)
MIC [6]: 100 µg/mL (≈ 459 µM)
MIC [7]: 10 µg/mL (≈ 45.9 µM)
MIC [8]: 10 µg/mL (≈ 45.9 µM)
MIC [9]: 10 µg/mL (≈ 45.9 µM)
MIC [10]: 10 µg/mL (≈ 45.9 µM)
SMILES: Cc1ccc(-c2nc(C#N)[nH]c2Cl)cc1 [Compound No. 1, 5-Chloro-4-(4-methylphenyl)-1H-imidazole-2-carbonitrile]
inhibition at 100 ppm ([1]; at 100 ppm): 98.1%
inhibition at 200 ppm ([1]; at 200 ppm): 100%
colony formation [2]: completely suppressed colony formation
inhibition at 100 ppm ([3]; at 100 ppm): 98.5%
inhibition at 200 ppm ([3]; at 200 ppm): 99.9%
colony formation [4]: completely inhibited colony formation
colony formation [11]: completely suppressed colony formation
